Reference: the NIST ThermoML archive (doi:10.1021/acs.jced.9b00334)

Conditions: Liquid, Vibrating tube method

CCn1cc[n+](C)c1.CCn1cc[n+](C)c1.[Co+2].[N-]=C=S.[N-]=C=S.[N-]=C=S.[N-]=C=S [bis(1-ethyl-3-methylimidazolium) tetrathiocyanatocobaltate]
mass density [kg/m3]
Conditions | 283.1 K | 293.1 K | 303.1 K | 313.2 K | 323.2 K | 333.2 K | 343.1 K | 353.1 K | 363.1 K
100 kPa | 1286.1 | 1278.7 | 1271.5 | 1264.4 | 1257.3 | 1250.3 | 1243.3 | 1236.4 | 1229.5
1000 kPa | 1286.5 | 1279.1 | 1272 | 1264.9 | 1257.8 | 1250.7 | 1243.7 | 1236.9 | 1230.1
2000 kPa | 1287 | 1279.6 | 1272.5 | 1265.3 | 1258.4 | 1251.3 | 1244.3 | 1237.5 | 1230.6
5000 kPa | 1288.4 | 1281.1 | 1273.9 | 1266.8 | 1259.9 | 1253 | 1246 | 1239.2 | 1232.4
7000 kPa | 1289.3 | 1282.1 | 1274.9 | 1267.9 | 1260.9 | 1253.9 | 1247 | 1240.3 | 1233.5
10000 kPa | 1290.6 | 1283.4 | 1276.3 | 1269.4 | 1262.5 | 1255.3 | 1248.6 | 1241.7 | 1235.1
15000 kPa | 1292.8 | 1285.7 | 1278.6 | 1271.7 | 1265 | 1257.9 | 1251.3 | 1244.3 | 1237.7
20000 kPa | 1295 | 1287.9 | 1281 | 1274.1 | 1267.3 | 1260.1 | 1253.7 | 1246.9 | 1240.4
25000 kPa | 1297.1 | 1290 | 1283.1 | 1276.3 | 1269.6 | 1262.7 | 1256 | 1249.4 | 1243
30000 kPa | 1299.1 | 1292.1 | 1285.4 | 1278.7 | 1271.9 | 1265.1 | 1258.3 | 1251.9 | 1245.6
35000 kPa | 1301.1 | 1294.3 | 1287.6 | 1280.9 | 1274.1 | 1267.5 | 1260.6 | 1254.3 | 1248.2
40000 kPa | 1303.2 | 1296.3 | 1289.6 | 1282.9 | 1276.4 | 1269.5 | 1263 | 1256.7 | 1250.5
45000 kPa | 1305.2 | 1298.4 | 1291.7 | 1285.1 | 1278.6 | 1272 | 1265.5 | 1259.1 | 1252.7
50000 kPa | 1307.2 | 1300.5 | 1294 | 1287.4 | 1280.8 | 1274.2 | 1267.7 | 1261.2 | 1254.9
55000 kPa | 1309 | 1302.5 | 1295.9 | 1289.5 | 1282.9 | 1276.4 | 1269.6 | 1263.6 | 1257.2
60000 kPa | 1311 | 1304.3 | 1297.9 | 1291.4 | 1285 | 1278.4 | 1271.8 | 1265.7 | 1259.4
65000 kPa | 1312.9 | 1306.3 | 1299.7 | 1293.3 | 1287 | 1280.4 | 1274.1 | 1267.7 | 1261.6
70000 kPa | 1314.8 | 1308.3 | 1301.7 | 1295.3 | 1288.9 | 1282.4 | 1275.9 | 1269.9 | 1263.7
75000 kPa | 1316.6 | 1310.2 | 1303.7 | 1297.2 | 1290.9 | 1284.6 | 1277.9 | 1272 | 1265.8
80000 kPa | 1318.3 | 1312.2 | 1305.4 | 1299 | 1292.8 | 1286.5 | 1280.2 | 1274.2 | 1267.8
85000 kPa | 1320 | 1313.9 | 1307.4 | 1301.1 | 1294.7 | 1288.6 | 1282.4 | 1276.1 | 1270.1
90000 kPa | 1321.9 | 1315.6 | 1309.4 | 1302.9 | 1296.8 | 1290.4 | 1284.3 | 1278.2 | 1272.1
95000 kPa | 1323.8 | 1317.5 | 1311 | 1304.8 | 1298.7 | 1292.5 | 1286.1 | 1280.2 | 1273.8
